Converted amounts (≈) assume the structure as drawn. Read-outs that look alike come from different tables or passages of the source.
Key:
C. albicans = assay: MIC against various species, CLSI M27 & M38 (Table 4); conditions: Candida albicans
C. parapsilosis = assay: as above; conditions: Lodderomyces parapsilosis, ATCC22019, read-out: Minimum inhibitory concentration 50%
C. auris = assay: as above; conditions: Candidozyma auris
Candida glabrata = assay: MIC against yeast, CLSI M27 & M38 (Table 2); conditions: Nakaseomyces glabratus
C. krusei [1] = assay: MIC against various species, CLSI M27 & M38 (Table 4); conditions: Pichia kudriavzevii, ATCC6258, read-out: Minimum inhibitory concentration 50%
Candida auris = assay: MIC against yeast, CLSI M27 & M38 (Table 2); conditions: Candidozyma auris
Cryptococcus neoformans = assay: MIC against yeast, CLSI M27 & M38 (Table 2); conditions: Cryptococcus neoformans
Candida guillermondii = assay: MIC against yeast, CLSI M27 & M38 (Table 2); conditions: Candida
Candida parapsilosis = assay: MIC against yeast, CLSI M27 & M38 (Table 2); conditions: for Minimum inhibitory concentration 50%: Table 2, RPMI 0.165M MOPS, 24-72 hours; for MIC: Lodderomyces parapsilosis
C. krusei [2] = assay: MIC against yeast, CLSI M27 & M38 (Table 2); conditions: Pichia kudriavzevii, ATCC6258, read-out: Minimum inhibitory concentration 50%
Coccidioldes sp. = assay: microbe, parasite or virus in culture; type: cell-based, Coccidioides species; conditions: Coccidioides, Table 3, RPMI 0.165M MOPS, 24-72 hours
[3] = tested on: Fusarium graminearum B4-5A; assay: microbe, parasite or virus in culture; type: cell-based; conditions: Fusarium graminearum, B45A, read-out: Minimum inhibitory concentration
Scedosporium = assay: MIC against various species, CLSI M27 & M38 (Table 4); conditions: Scedosporium
Candida albicans MYA2876 = assay: MIC against fungal strains (Table 1); type: cell-based; conditions: Candida albicans, MYA2876, read-out: Minimum inhibitory concentration
P. variotil = assay: MIC against various species, CLSI M27 & M38 (Table 4); type: cell-based, Paecilomyces variotii; conditions: Paecilomyces variotii, P. variotil QC, RPMI 0.165M MOPS, 24-72 hours, read-out: Minimum inhibitory concentration 100%
A. furnigatus = assay: as above; conditions: Aspergillus fumigatus
Candida albicans 64124 = assay: MIC against fungal strains (Table 1); type: cell-based; conditions: read-out: Minimum inhibitory concentration
[4] = tested on: Cryptococcus neoformans H99; assay: MIC against fungal strains (Table 1); type: cell-based; conditions: Cryptococcus neoformans, H99, read-out: Minimum inhibitory concentration
L. prolificans = assay: MIC against various species, CLSI M27 & M38 (Table 4); conditions: Lomentospora prolificans, read-out: Minimum inhibitory concentration 100%
Rhodotorula pilimanae = assay: MIC against fungal strains (Table 1); type: cell-based; conditions: Rhodotorula mucilaginosa, read-out: Minimum inhibitory concentration
P. variatii = assay: MIC against filamentous and dimorphic fungi, CLSI M27 & M38 (Table 3); type: cell-based, Paecilomyces variotii; conditions: Paecilomyces variotii, P. variatii MYA-3630, RPMI 0.165M MOPS, 24-72 hours, read-out: Minimum inhibitory concentration 100%
Histoplasma capsulatum = assay: microbe, parasite or virus in culture; type: cell-based; conditions: Histoplasma capsulatum, Table 3, RPMI 0.165M MOPS, 24-72 hours
B. dermatitidis = assay: MIC against various B. dermatitidis isolates, CLSI M27 & M38; conditions: Blastomyces dermatitidis, RPMI 0.165M MOPS, 24-72 hours
Fusarium = assay: MIC against various species, CLSI M27 & M38 (Table 4); type: cell-based; conditions: 24-72 hours

SMILES: OC(Cn1cncn1)(Cn1cncn1)c1ccc(F)cc1F [Fluconazole, reference compound]
- MIC (C. albicans; read-out: Minimum inhibitory concentration 50%, C. albicans CA1, RPMI 0.165M MOPS, 24-72 hours): ≤ 0.125 µg/mL
- MIC (C. albicans; read-out: Minimum inhibitory concentration 50%, C. albicans CA2, RPMI 0.165M MOPS, 24-72 hours): ≤ 0.125 µg/mL
- MIC (C. albicans; read-out: Minimum inhibitory concentration 50%, C. albicans CA3, RPMI 0.165M MOPS, 24-72 hours): > 64 µg/mL
- MIC (C. parapsilosis): 1 µg/mL (≈ 3.27 µM)
- MIC (C. auris; read-out: Minimum inhibitory concentration 50%, C. auris DI17-46, RPMI 0.165M MOPS, 24-72 hours): > 64 µg/mL
- MIC (C. auris; read-out: Minimum inhibitory concentration 50%, C. auris DI17-47, RPMI 0.165M MOPS, 24-72 hours): > 64 µg/mL
- MIC (C. auris; read-out: Minimum inhibitory concentration 50%, C. auris DI17-48, RPMI 0.165M MOPS, 24-72 hours): 2 µg/mL (≈ 6.53 µM)
- MIC (Candida glabrata; read-out: Minimum inhibitory concentration 50%, Candida glabrata CG1, RPMI 0.165M MOPS, 24-72 hours): > 64 µg/mL
- MIC (Candida glabrata; read-out: Minimum inhibitory concentration 50%, Candida glabrata CG2, RPMI 0.165M MOPS, 24-72 hours): 8 µg/mL (≈ 26.1 µM)
- MIC (Candida glabrata; read-out: Minimum inhibitory concentration 50%, Candida glabrata CG3, RPMI 0.165M MOPS, 24-72 hours): 64 µg/mL (≈ 209 µM)
- MIC (C. krusei [1]): > 16 µg/mL
- MIC (Candida auris; read-out: Minimum inhibitory concentration 50%, Candida auris CAU1, RPMI 0.165M MOPS, 24-72 hours): 2 µg/mL (≈ 6.53 µM)
- MIC (Candida auris; read-out: Minimum inhibitory concentration 50%, Candida auris CAU2, RPMI 0.165M MOPS, 24-72 hours): 1 µg/mL (≈ 3.27 µM)
- MIC (Candida auris; read-out: Minimum inhibitory concentration 50%, Candida auris CAU3, RPMI 0.165M MOPS, 24-72 hours): 0.5 µg/mL (≈ 1.63 µM)
- MIC (Candida auris; read-out: Minimum inhibitory concentration 50%, Candida auris CAU4, RPMI 0.165M MOPS, 24-72 hours): > 64 µg/mL
- MIC (Candida auris; read-out: Minimum inhibitory concentration 50%, Candida auris CAU5, RPMI 0.165M MOPS, 24-72 hours): 16 µg/mL (≈ 52.2 µM)
- MIC (Candida auris; read-out: Minimum inhibitory concentration 50%, Candida auris CAU6, RPMI 0.165M MOPS, 24-72 hours): 2 µg/mL (≈ 6.53 µM)
- MIC (Candida auris; read-out: Minimum inhibitory concentration 50%, Candida auris CAU7, RPMI 0.165M MOPS, 24-72 hours): 2 µg/mL (≈ 6.53 µM)
- MIC (Candida auris; read-out: Minimum inhibitory concentration 50%, Candida auris DI17-46, RPMI 0.165M MOPS, 24-72 hours): > 64 µg/mL
- MIC (Candida auris; read-out: Minimum inhibitory concentration 50%, Candida auris DI17-47, RPMI 0.165M MOPS, 24-72 hours): > 64 µg/mL
- MIC (Candida auris; read-out: Minimum inhibitory concentration 50%, Candida auris DI17-48, RPMI 0.165M MOPS, 24-72 hours): 2 µg/mL (≈ 6.53 µM)
- MIC (Cryptococcus neoformans; read-out: Minimum inhibitory concentration 50%, Cryptococcus neoformans CN1, RPMI 0.165M MOPS, 24-72 hours): 8 µg/mL (≈ 26.1 µM)
- MIC (Cryptococcus neoformans; read-out: Minimum inhibitory concentration 50%, Cryptococcus neoformans H99, RPMI 0.165M MOPS, 24-72 hours): 16 µg/mL (≈ 52.2 µM)
- MIC (Cryptococcus neoformans; read-out: Minimum inhibitory concentration 50%, Cryptococcus neoformans USC1597, RPMI 0.165M MOPS, 24-72 hours): 2 µg/mL (≈ 6.53 µM)
- MIC (Candida guillermondii; read-out: Minimum inhibitory concentration 50%, Candida guillermondii CGUI1, RPMI 0.165M MOPS, 24-72 hours): 1 µg/mL (≈ 3.27 µM)
- MIC (Candida guillermondii; read-out: Minimum inhibitory concentration 50%, Candida guillermondii CGUI2, RPMI 0.165M MOPS, 24-72 hours): 2 µg/mL (≈ 6.53 µM)
- MIC (Candida guillermondii; read-out: Minimum inhibitory concentration 50%, Candida guillermondii CGUI3, RPMI 0.165M MOPS, 24-72 hours): 2 µg/mL (≈ 6.53 µM)
- Minimum inhibitory concentration 50% (Candida parapsilosis; Candida parapsilosis CP2): 0.5 µg/mL (≈ 1.63 µM)
- Minimum inhibitory concentration 50% (Candida parapsilosis; Candida parapsilosis CP3): 0.5 µg/mL (≈ 1.63 µM)
- MIC (Candida parapsilosis; ATCC22019, read-out: Minimum inhibitory concentration 50%): 1 µg/mL (≈ 3.27 µM)
- MIC (Candida parapsilosis; read-out: Minimum inhibitory concentration 50%): 0.5 µg/mL (≈ 1.63 µM)
- MIC (C. krusei [2]): 16 µg/mL (≈ 52.2 µM)

SMILES: C[C@@H](c1ncncc1F)[C@](O)(Cn1cncn1)c1ccc(F)cc1F [Voriconazole, reference compound]
- MIC (Coccidioldes sp.; read-out: Minimum inhibitory concentration 100%, Coccidioldes sp. Cocci1): 0.25 µg/mL (≈ 0.716 µM)
- MIC (Coccidioldes sp.; read-out: Minimum inhibitory concentration 100%, Coccidioldes sp. Cocci2): 2 µg/mL (≈ 5.73 µM)
- MIC (Coccidioldes sp.; read-out: Minimum inhibitory concentration 100%, Coccidioldes sp. DI17-143): 0.125 µg/mL (≈ 0.358 µM)
- MIC [3]: 32 µg/mL (≈ 91.6 µM)
- MIC (Scedosporium; read-out: Minimum inhibitory concentration 100%, Scedosporium SA1, RPMI 0.165M MOPS, 24-72 hours): 1 µg/mL (≈ 2.86 µM)
- MIC (Scedosporium; read-out: Minimum inhibitory concentration 100%, Scedosporium SB1, RPMI 0.165M MOPS, 24-72 hours): 2 µg/mL (≈ 5.73 µM)
- MIC (Candida albicans MYA2876): 0.125 µg/mL (≈ 0.358 µM)
- MIC (P. variotil): 0.125 µg/mL (≈ 0.358 µM)
- MIC (A. furnigatus; read-out: Minimum inhibitory concentration 100%, A. furnigatus AF1, RPMI 0.165M MOPS, 24-72 hours): 1 µg/mL (≈ 2.86 µM)
- MIC (A. furnigatus; read-out: Minimum inhibitory concentration 100%, A. furnigatus AF2, RPMI 0.165M MOPS, 24-72 hours): 8 µg/mL (≈ 22.9 µM)
- MIC (A. furnigatus; read-out: Minimum inhibitory concentration 100%, A. furnigatus AF3, RPMI 0.165M MOPS, 24-72 hours): 4 µg/mL (≈ 11.5 µM)
- MIC (Candida albicans 64124): > 256 µg/mL
- MIC [4]: 0.125 µg/mL (≈ 0.358 µM)
- MIC (L. prolificans): > 16 µg/mL
- MIC (Rhodotorula pilimanae): 8 µg/mL (≈ 22.9 µM)
- MIC (P. variatii): 0.125 µg/mL (≈ 0.358 µM)
- MIC (Histoplasma capsulatum; read-out: Minimum inhibitory concentration 100%, Histoplasma capsulatum HC1): 0.125 µg/mL (≈ 0.358 µM)
- MIC (Histoplasma capsulatum; read-out: Minimum inhibitory concentration 100%, Histoplasma capsulatum HC2): ≤ 0.03 µg/mL
- MIC (Histoplasma capsulatum; read-out: Minimum inhibitory concentration 100%, Histoplasma capsulatum HC3): ≤ 0.03 µg/mL
- MIC (B. dermatitidis; read-out: Minimum inhibitory concentration 100%, B. dermatitidis BD1): 0.06 µg/mL (≈ 0.172 µM)
- MIC (B. dermatitidis; read-out: Minimum inhibitory concentration 100%, B. dermatitidis BD2): ≤ 0.03 µg/mL
- MIC (B. dermatitidis; read-out: Minimum inhibitory concentration 100%, B. dermatitidis BD3): 0.125 µg/mL (≈ 0.358 µM)
- MIC (Fusarium; Fusarium FO1, RPMI 0.165M MOPS, read-out: Minimum inhibitory concentration 100%): > 16 µg/mL
- Minimum inhibitory concentration 100% (Fusarium; Fusarium FO2, RPMI 0.165M MOPS): >16 µg/mL
- Minimum inhibitory concentration 100% (Fusarium; Fusarium FS1, RPMI 0.165M MOPS): >16 µg/mL

From patent publication US20210230203A1, “Amphiphilic Kanamycin Compositions and Methods” (priority 2020, published 2021)
